What all share (format): biochemical
One experiment deals with GSK-3β (Homo sapiens, UniProt P49841). Description: General kinase assay, selectivity panel: GSK-3β. The note with it: 10 μM of compound, in comparison to DMSO (0% inhibition). As for the experimental part: (§1) The inhibitory effect of compounds according to the present invention on the activity of protein kinases, depicted in Table 1, can be measured according to the following protocol:
(§2) Pipettinq Sequence: • 1) Add 10 μl 4 fold concentrated Substrate+4 fold concentrated ATP in 3 fold concentrated Reaction Buffer to each well of Assay Plate • 2) Add 10 μl 4 fold concentrated inhibitor in 4% DMSO in H2O to each well except to C− and C+ wells • 3) Add 10 μl 4% DMSO in H2O to C− and C+ wells • 4) Add 10 μl 500 mM EDTA in H2O to − wells • 5) Add 10 μl 50 μCi/ml Adenosine 5′-[γ-^33P]triphosphate in H2O to each well • 6) Add 10 μl 4 fold concentrated kinase in Reaction Buffer to each well • 7) Incubate 1 hr at room temperature • 8) Add 10 μl 50 mM EDTA in H2O to each well except to C− wells • 9) Prepare MAPH plates by adding 200 μl 0.75% H3PO4 to each well • 10) Exhaust 0.75% H3PO4 using Millipore vacuum station • 11) Add 60 μl 0.75% H3PO4 to each well of MAPH Filter Plate • 12) Transfer 30 μl sample per well from Assay Plate to corresponding well of MAPH Filter Plate • 13) Incubate 30 min at room temperature • 14) Wash each well of MAPH Filter Plates 3× with 200 μl 0.75% H3PO4 using Millipore vacuum station. • 15) Add 20 μl Scintillation Liquid to each well of MAPH Filter Plate • 16) Seal MAPH Filter Plate • 17) Store MAPH Filter Plate 30 min in darkness • 18) Quantify radioactivity
(§3) The activity of these protein kinases is depicted as % inhibition in the presence of 10 μM of compound in comparison to DMSO (0% inhibition).

In another experiment the target is EGFR (Homo sapiens, UniProt P00533). In words: General kinase assay, selectivity panel: EGFR. The note with it: 10 μM of compound, in comparison to DMSO (0% inhibition). As for the experimental part:
as §1, §2, §3

The subject of a further experiment is PDGFR. In words: General kinase assay, selectivity panel: PDGFR. To be noted: 10 μM of compound, in comparison to DMSO (0% inhibition). As for the experimental part:
as §1, §2, §3

For the next experiment, the target named is T1, CDK5/p35 (Homo sapiens, UniProt Q00535).
T1 construct: purchased Upsate (Upstate)
T1 sequence (Q00535 whole entry): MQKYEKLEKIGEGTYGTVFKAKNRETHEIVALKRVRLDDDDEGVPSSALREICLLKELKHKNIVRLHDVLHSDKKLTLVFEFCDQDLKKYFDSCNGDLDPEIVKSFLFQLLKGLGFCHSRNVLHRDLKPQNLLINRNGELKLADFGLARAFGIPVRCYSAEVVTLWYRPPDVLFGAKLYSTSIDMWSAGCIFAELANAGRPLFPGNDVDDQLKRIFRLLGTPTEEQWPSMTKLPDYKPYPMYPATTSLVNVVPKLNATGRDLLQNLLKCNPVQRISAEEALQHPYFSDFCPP
T1 sequence (Q15078 whole entry partner): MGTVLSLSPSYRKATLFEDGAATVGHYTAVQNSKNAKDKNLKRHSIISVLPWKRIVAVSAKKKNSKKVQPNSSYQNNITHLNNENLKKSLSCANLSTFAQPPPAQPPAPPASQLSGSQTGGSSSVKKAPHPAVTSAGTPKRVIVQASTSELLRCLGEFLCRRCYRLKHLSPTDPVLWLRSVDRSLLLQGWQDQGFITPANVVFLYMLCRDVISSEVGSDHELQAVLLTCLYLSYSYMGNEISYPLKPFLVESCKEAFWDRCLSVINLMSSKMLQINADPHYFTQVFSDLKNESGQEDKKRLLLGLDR
In words: Kinase assay determining CDK5/p35 activity (selectivity panel). To be noted: 10 μM of compound, in comparison to DMSO (0% inhibition). As for the experimental part:
Kinase Assays Determining CDK2/CyclinA and CDK5/p35 Activity:
Kinase assays were performed as described by the manufacturers recommendations (Proqinase for CDK2/CyclinA and Upsate for CDK5/p35).
as §3

The target of the next experiment is CDK1 (Homo sapiens, UniProt P06493). Description: General kinase assay, selectivity panel: CDK1. To be noted: 10 μM of compound, in comparison to DMSO (0% inhibition). The protocol: as §1, §2, §3
Another experiment has as its target Abl (Homo sapiens, UniProt P00519). Description: General kinase assay, selectivity panel: Abl. To be noted: 10 μM of compound, in comparison to DMSO (0% inhibition). The protocol: as §1, §2, §3
A further experiment addresses CDK4 (Homo sapiens, UniProt P11802). Description: CDK4 (activity range), Table 2; no method described.
In another experiment the target is p56 Lck (Homo sapiens, UniProt P06239). Description: General kinase assay, selectivity panel: p56 Lck. To be noted: 10 μM of compound, in comparison to DMSO (0% inhibition). As for the experimental part: as §1, §2, §3
Chain of p56 Lck (P06239 whole entry): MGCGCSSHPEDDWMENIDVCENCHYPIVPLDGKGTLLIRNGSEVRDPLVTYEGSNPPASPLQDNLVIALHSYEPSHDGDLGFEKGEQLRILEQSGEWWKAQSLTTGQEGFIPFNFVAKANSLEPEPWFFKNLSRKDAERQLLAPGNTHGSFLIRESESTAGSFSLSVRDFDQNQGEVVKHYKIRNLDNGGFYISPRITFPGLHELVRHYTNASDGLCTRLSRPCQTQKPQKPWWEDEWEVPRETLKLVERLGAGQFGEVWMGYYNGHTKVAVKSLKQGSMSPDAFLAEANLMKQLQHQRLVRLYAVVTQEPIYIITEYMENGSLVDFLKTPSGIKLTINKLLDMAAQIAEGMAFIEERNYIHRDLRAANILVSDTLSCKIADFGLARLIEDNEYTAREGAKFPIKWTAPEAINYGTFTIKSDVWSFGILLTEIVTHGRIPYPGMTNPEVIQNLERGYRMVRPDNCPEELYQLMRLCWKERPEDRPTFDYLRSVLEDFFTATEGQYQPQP
Another experiment has as its target c-Kit (Homo sapiens, UniProt P10721). Description: General kinase assay, selectivity panel: c-Kit. To be noted: 10 μM of compound, in comparison to DMSO (0% inhibition). The protocol: as §1, §2, §3
Another experiment has as its target RSK1 (Homo sapiens, UniProt Q15418). In words: General kinase assay, selectivity panel: RSK1. To be noted: 10 μM of compound, in comparison to DMSO (0% inhibition). As for the experimental part: as §1, §2, §3

The structures appear in SMILES notation. pIC50: −log10 of the molar value.

Chain of EGFR (P00533 25-1210, species assumed): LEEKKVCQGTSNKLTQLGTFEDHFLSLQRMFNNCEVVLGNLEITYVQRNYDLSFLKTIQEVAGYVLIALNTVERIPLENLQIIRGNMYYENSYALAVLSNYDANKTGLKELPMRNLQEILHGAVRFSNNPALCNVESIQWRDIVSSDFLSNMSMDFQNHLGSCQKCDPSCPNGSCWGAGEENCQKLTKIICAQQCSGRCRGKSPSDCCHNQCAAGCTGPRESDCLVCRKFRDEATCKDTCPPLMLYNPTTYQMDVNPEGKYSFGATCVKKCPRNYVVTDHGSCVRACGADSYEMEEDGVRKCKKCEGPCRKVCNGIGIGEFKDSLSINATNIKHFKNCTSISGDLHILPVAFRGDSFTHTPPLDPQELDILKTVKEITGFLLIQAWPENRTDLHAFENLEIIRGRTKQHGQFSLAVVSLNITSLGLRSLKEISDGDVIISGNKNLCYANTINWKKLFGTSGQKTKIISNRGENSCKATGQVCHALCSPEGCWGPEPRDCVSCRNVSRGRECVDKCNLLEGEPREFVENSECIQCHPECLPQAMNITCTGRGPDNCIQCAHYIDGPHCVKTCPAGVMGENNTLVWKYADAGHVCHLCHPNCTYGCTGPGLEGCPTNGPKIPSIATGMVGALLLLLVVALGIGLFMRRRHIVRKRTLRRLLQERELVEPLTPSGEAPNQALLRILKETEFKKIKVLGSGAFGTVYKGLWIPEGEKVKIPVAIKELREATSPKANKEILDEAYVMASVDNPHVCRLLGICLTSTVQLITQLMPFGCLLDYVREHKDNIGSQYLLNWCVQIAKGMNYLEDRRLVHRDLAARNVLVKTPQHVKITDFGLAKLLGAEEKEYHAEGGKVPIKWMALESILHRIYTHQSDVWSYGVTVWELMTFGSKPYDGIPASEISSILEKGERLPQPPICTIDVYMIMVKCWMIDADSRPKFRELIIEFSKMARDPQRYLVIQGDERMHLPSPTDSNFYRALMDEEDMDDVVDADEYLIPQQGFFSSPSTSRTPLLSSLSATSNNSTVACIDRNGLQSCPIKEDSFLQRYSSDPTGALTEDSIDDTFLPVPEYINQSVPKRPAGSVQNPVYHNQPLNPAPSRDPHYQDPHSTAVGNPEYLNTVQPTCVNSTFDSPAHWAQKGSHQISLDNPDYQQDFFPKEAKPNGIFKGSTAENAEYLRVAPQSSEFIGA
Chain of GSK-3β (P49841 whole entry, species assumed): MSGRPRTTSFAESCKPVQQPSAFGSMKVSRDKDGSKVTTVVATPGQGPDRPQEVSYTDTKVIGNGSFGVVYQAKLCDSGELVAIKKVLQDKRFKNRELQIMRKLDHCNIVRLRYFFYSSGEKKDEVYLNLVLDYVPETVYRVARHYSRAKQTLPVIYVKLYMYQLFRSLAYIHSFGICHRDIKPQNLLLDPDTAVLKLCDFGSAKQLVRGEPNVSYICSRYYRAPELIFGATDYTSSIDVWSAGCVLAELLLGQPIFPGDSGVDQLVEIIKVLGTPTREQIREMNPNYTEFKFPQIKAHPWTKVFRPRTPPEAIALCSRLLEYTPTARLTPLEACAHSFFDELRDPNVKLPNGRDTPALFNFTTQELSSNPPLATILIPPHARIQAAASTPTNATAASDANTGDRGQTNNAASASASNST
Chain of CDK4 (P11802 whole entry, species assumed): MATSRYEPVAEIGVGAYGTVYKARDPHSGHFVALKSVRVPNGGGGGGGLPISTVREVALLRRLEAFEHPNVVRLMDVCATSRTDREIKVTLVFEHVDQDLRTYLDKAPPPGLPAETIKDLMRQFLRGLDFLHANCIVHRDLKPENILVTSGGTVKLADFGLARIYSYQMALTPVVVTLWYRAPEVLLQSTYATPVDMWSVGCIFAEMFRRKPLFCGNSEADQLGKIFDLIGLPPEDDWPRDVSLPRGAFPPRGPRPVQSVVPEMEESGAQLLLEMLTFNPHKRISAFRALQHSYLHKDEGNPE
Chain of CDK4 (P24385 whole entry partner, species assumed): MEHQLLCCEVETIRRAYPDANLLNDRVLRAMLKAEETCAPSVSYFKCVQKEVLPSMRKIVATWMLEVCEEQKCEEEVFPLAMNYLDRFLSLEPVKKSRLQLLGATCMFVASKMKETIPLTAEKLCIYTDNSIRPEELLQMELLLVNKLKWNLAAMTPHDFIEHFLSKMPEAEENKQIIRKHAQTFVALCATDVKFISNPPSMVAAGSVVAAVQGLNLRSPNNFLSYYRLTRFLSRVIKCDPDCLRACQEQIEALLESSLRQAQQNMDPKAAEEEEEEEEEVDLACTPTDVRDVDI
Chain of Abl (P00519 whole entry, species assumed): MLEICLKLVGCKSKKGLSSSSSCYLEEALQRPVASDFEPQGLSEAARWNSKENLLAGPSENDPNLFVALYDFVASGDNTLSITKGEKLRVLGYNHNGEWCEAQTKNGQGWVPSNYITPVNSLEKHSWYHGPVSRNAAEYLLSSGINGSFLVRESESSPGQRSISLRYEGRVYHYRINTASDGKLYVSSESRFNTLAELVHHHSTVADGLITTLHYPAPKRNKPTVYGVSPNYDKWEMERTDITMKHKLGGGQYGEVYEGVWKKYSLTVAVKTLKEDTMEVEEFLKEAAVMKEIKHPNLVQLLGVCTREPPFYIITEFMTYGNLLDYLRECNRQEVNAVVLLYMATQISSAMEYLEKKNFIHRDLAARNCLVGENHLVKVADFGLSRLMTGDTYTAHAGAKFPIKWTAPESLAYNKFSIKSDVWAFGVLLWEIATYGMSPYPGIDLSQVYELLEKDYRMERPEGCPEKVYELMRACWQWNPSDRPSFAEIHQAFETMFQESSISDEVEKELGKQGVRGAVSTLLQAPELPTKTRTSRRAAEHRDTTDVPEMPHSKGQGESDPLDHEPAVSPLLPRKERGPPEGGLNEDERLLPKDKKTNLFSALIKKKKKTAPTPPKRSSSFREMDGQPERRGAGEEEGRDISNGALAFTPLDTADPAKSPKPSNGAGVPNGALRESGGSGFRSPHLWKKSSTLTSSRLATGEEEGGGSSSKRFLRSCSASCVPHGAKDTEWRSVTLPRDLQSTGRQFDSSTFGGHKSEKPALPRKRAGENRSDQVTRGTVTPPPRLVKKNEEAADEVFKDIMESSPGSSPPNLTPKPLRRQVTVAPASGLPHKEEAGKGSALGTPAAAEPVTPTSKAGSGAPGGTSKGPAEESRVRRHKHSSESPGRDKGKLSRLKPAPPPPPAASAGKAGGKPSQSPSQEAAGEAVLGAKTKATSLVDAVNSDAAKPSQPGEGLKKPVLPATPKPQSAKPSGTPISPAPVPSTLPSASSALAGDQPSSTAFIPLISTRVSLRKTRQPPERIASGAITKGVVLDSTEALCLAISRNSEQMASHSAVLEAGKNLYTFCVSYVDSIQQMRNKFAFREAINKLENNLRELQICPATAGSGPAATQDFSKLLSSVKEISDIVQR

With `Cc1ccc(Nc2cc(-c3cccc(N)c3)ncn2)cc1NS(=O)(=O)c1ccccc1` [Compound 109], the “GSK-3β (% inhibition)” value on GSK-3β is recorded as “a (inhibition greater than 80%: a)”. Moreover, the “EGFR (% inhibition)” value on EGFR is “b (inhibition between 80 and 50%: b)”. Moreover, in the experiment on PDGFR, the “PDGFR (% inhibition)” value is “c (inhibition between 50 and 30%: c)”. In addition, at CDK5/p35, the “CDK5 (% inhibition)” value is reported as “a (inhibition greater than 80%: a)”. The “CDK1 (% inhibition)” value on CDK1 is given as “a (inhibition greater than 80%: a)”.
Regarding `COc1ccccc1-c1cc(Nc2ccc(NC(=O)[C@@H](N)c3ccccc3)cc2)ncn1` [Compound 81], the “Abl (% inhibition)” value at Abl was “b (inhibition between 80 and 50%: b)”. The “GSK-3β (% inhibition)” value on GSK-3β is “b (inhibition between 80 and 50%: b)”. For the same compound, the “EGFR (% inhibition)” value on EGFR is “b (inhibition between 80 and 50%: b)”. Further, the “PDGFR (% inhibition)” value in the experiment on PDGFR is “b (inhibition between 80 and 50%: b)”. Further, the “CDK5 (% inhibition)” value on CDK5/p35 is listed as “a (inhibition greater than 80%: a)”. For the same compound, the “CDK1 (% inhibition)” value at CDK1 was “a (inhibition greater than 80%: a)”.
One may read the pIC50 as the IC50 on a negative log10 scale, so that one unit is a factor of ten. Low values mean a high IC50, high ones a low IC50. Regarding `COc1ccccc1-c1cc(Nc2ccc3c(c2)S(=O)(=O)C=C3)ncn1` [Compound 342], on CDK4, the negative logarithm of the IC50 (pIC50) was 3.60 to 5.00.
Same read-out and setting: under `CNS(=O)(=O)c1ccc(Nc2cc(-c3ccccc3OC)ncn2)cc1` [Compound 341] stands 5.00 to 6.00; under `COc1ccccc1-c1cc(Nc2ccc(CCO)cc2)ncn1` [Compound 351], 5.00 to 6.00.
Still for that read-out and setting: then `COc1cccc(F)c1-c1cc(Nc2cccc(S(C)(=O)=O)c2)ncn1` [Compound 346], with 5.00 to 6.00.
Still for that read-out and setting: then `N[C@@H]1CCCC[C@H]1NC(=O)c1ccc(Nc2cc(-c3ccccc3O)ncn2)cc1` [Compound 218], with 5.00 to 6.00.
In the case of `CN[C@H](C(=O)Nc1ccc(Nc2cc(-c3ccccc3OC)ncn2)cc1)c1ccccc1` [Compound 82], the “Abl (% inhibition)” value on Abl was “c (inhibition between 50 and 30%: c)”. Also, the “GSK-3β (% inhibition)” value on GSK-3β is “c (inhibition between 50 and 30%: c)”. On EGFR, the “EGFR (% inhibition)” value is given as “a (inhibition greater than 80%: a)”. The “PDGFR (% inhibition)” value in the experiment with PDGFR is “c (inhibition between 50 and 30%: c)”. Moreover, the “CDK5 (% inhibition)” value at CDK5/p35 is “b (inhibition between 80 and 50%: b)”. The “CDK1 (% inhibition)” value at CDK1 is “b (inhibition between 80 and 50%: b)”.
Turning to `COc1ccccc1-c1cc(Nc2ccc(NS(C)(=O)=O)cc2)ncn1` [Compound 33], the “GSK-3β (% inhibition)” value at GSK-3β was “b (inhibition between 80 and 50%: b)”. The “p56 Lck (% inhibition)” value at p56 Lck is “b (inhibition between 80 and 50%: b)”. For the same compound, at EGFR, the “EGFR (% inhibition)” value is “b (inhibition between 80 and 50%: b)”. For the same compound, the “PDGFR (% inhibition)” value with PDGFR is “b (inhibition between 80 and 50%: b)”. Further, on c-Kit, the “c-Kit (% inhibition)” value is “b (inhibition between 80 and 50%: b)”. Further, the “RSK1 (% inhibition)” value at RSK1 is “c (inhibition between 50 and 30%: c)”. Moreover, the “CDK1 (% inhibition)” value at CDK1 was “a (inhibition greater than 80%: a)”.
`COc1ncccc1-c1cc(Nc2ccc(C(=O)N[C@@H]3CCCC[C@H]3N)cc2)ncn1` [Compound 219] had a negative logarithm of the IC50 (pIC50) against CDK4 of 3.60 to 5.00.
Turning to `CN(C)c1ccccc1-c1cc(Nc2ccc(C(=O)N[C@@H]3CCCC[C@H]3N)cc2)ncn1` [Compound 233], the pIC50 against CDK4 is 5.00 to 6.00.
The same measure, in the same setting: then `CCN(CC)CCNC(=O)c1ccc(Nc2cc(-c3ccccc3OC)ncn2)cc1` [Compound 217], with 5.00 to 6.00.
With `CNC(C)(C)C(=O)Nc1ccc(Nc2cc(-c3ccccc3OC)ncn2)cc1` [Compound 118], the “Abl (% inhibition)” value at Abl is “c (inhibition between 50 and 30%: c)”. Further, the “EGFR (% inhibition)” value on EGFR was “a (inhibition greater than 80%: a)”. The “PDGFR (% inhibition)” value in the experiment with PDGFR is “b (inhibition between 80 and 50%: b)”. Also, the “CDK5 (% inhibition)” value at CDK5/p35 was “b (inhibition between 80 and 50%: b)”. Further, at CDK1, the “CDK1 (% inhibition)” value is “b (inhibition between 80 and 50%: b)”.
In the case of `COc1ccccc1-c1cc(Nc2ccc(NC(=O)c3ccc(N4CCN(C)CC4)cc3)cc2)ncn1` [Compound 49], the “Abl (% inhibition)” value at Abl is “b (inhibition between 80 and 50%: b)”. At GSK-3β, the “GSK-3β (% inhibition)” value is “b (inhibition between 80 and 50%: b)”. Besides, the “p56 Lck (% inhibition)” value on p56 Lck is “b (inhibition between 80 and 50%: b)”. Further, the “EGFR (% inhibition)” value on EGFR was “b (inhibition between 80 and 50%: b)”. Besides, the “PDGFR (% inhibition)” value in the experiment on PDGFR is “c (inhibition between 50 and 30%: c)”. For the same compound, the “c-Kit (% inhibition)” value at c-Kit was “b (inhibition between 80 and 50%: b)”. In addition, at CDK1, the “CDK1 (% inhibition)” value is reported as “a (inhibition greater than 80%: a)”.
As for `CCN(CC)CCC(=O)Nc1ccc(Nc2cc(-c3ccccc3OC)ncn2)cc1` [Compound 64], the “Abl (% inhibition)” value at Abl is “b (inhibition between 80 and 50%: b)”. Besides, the “GSK-3β (% inhibition)” value on GSK-3β was “c (inhibition between 50 and 30%: c)”. Moreover, the “p56 Lck (% inhibition)” value on p56 Lck is “b (inhibition between 80 and 50%: b)”. On EGFR, the “EGFR (% inhibition)” value is recorded as “a (inhibition greater than 80%: a)”. Further, in the experiment with PDGFR, the “PDGFR (% inhibition)” value was “b (inhibition between 80 and 50%: b)”. Also, the “c-Kit (% inhibition)” value on c-Kit is “b (inhibition between 80 and 50%: b)”. The “CDK1 (% inhibition)” value on CDK1 was “a (inhibition greater than 80%: a)”.
For the compound `COc1ccccc1-c1cc(Nc2ccc(NC(=O)c3cn(C)cn3)cc2)ncn1` [Compound 70], the “Abl (% inhibition)” value at Abl is “c (inhibition between 50 and 30%: c)”. Also, on GSK-3β, the “GSK-3β (% inhibition)” value was “b (inhibition between 80 and 50%: b)”. In addition, the “p56 Lck (% inhibition)” value at p56 Lck is “b (inhibition between 80 and 50%: b)”. For the same compound, the “EGFR (% inhibition)” value on EGFR was “b (inhibition between 80 and 50%: b)”. Moreover, the “PDGFR (% inhibition)” value in the experiment on PDGFR was “b (inhibition between 80 and 50%: b)”. The “c-Kit (% inhibition)” value at c-Kit was “b (inhibition between 80 and 50%: b)”. In addition, the “RSK1 (% inhibition)” value at RSK1 was “b (inhibition between 80 and 50%: b)”. Also, at CDK1, the “CDK1 (% inhibition)” value was “a (inhibition greater than 80%: a)”.
On to `COc1ccccc1-c1cc(Nc2ccc3cnn(C)c3c2)ncn1` [Compound 353], for which the negative-log IC50 (pIC50) at CDK4 is 5.00 to 6.00.
On the same count and under the same terms, under `CSc1ccncc1-c1cc(Nc2ccc(C(=O)N[C@@H]3CCCC[C@H]3N)cc2)ncn1` [Compound 224] stands 5.00 to 6.00; under `COc1ccccc1-c1cc(Nc2cccc(S(N)(=O)=O)c2)ncn1` [Compound 331], 3.60 to 5.00.
On the same count and under the same terms, under `COc1ccccc1-c1cc(Nc2ccc(N3CCOCC3)cc2)ncn1` [Compound 280] stands 5.00 to 6.00; under `O=C(O)Cc1ccc(Nc2cc(-c3ccccc3OCc3ccccc3)ncn2)cc1` [Compound 294], 5.00 to 6.00.
In the case of `COc1ccccc1-c1cc(Nc2ccc(NC(=O)C3(N)CCCCC3)cc2)ncn1` [Compound 66], the “Abl (% inhibition)” value on Abl was “b (inhibition between 80 and 50%: b)”. In addition, the “p56 Lck (% inhibition)” value at p56 Lck was “b (inhibition between 80 and 50%: b)”. The “EGFR (% inhibition)” value at EGFR is “a (inhibition greater than 80%: a)”. In the experiment with PDGFR, the “PDGFR (% inhibition)” value is “b (inhibition between 80 and 50%: b)”. On c-Kit, the “c-Kit (% inhibition)” value is “b (inhibition between 80 and 50%: b)”. Besides, the “CDK1 (% inhibition)” value on CDK1 was “b (inhibition between 80 and 50%: b)”.

The record behind these values is patent US8084457B2, “Pharmaceutically active 4,6-disubstituted aminopyrimidine derivatives as modulators of protein kinases” (Lead Discovery Center GmbH, priority 2003, dated 2011).
